US9546164B2 (GENENTECH, INC., priority 2013, dated 2017)
Counter-ions that a name gives are not always drawn.
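Further: Filter-bound radioactivity counted by liquid scintillation, nonspecific binding defined with excess unlabelled ligand, IC50 fitted to percent inhibition of specific binding.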

The compounds below were run against hNav1.7 (Homo sapiens (Human), UniProt Q15858) (assay: Tritiated sulfonamide competitive binding to membranes from cells expressing hNav1.7 and the β1 subunit). Conditions: not given.
Sequence of hNav1.7 (Q15858 other isoform, or with tags, fused parts or gaps): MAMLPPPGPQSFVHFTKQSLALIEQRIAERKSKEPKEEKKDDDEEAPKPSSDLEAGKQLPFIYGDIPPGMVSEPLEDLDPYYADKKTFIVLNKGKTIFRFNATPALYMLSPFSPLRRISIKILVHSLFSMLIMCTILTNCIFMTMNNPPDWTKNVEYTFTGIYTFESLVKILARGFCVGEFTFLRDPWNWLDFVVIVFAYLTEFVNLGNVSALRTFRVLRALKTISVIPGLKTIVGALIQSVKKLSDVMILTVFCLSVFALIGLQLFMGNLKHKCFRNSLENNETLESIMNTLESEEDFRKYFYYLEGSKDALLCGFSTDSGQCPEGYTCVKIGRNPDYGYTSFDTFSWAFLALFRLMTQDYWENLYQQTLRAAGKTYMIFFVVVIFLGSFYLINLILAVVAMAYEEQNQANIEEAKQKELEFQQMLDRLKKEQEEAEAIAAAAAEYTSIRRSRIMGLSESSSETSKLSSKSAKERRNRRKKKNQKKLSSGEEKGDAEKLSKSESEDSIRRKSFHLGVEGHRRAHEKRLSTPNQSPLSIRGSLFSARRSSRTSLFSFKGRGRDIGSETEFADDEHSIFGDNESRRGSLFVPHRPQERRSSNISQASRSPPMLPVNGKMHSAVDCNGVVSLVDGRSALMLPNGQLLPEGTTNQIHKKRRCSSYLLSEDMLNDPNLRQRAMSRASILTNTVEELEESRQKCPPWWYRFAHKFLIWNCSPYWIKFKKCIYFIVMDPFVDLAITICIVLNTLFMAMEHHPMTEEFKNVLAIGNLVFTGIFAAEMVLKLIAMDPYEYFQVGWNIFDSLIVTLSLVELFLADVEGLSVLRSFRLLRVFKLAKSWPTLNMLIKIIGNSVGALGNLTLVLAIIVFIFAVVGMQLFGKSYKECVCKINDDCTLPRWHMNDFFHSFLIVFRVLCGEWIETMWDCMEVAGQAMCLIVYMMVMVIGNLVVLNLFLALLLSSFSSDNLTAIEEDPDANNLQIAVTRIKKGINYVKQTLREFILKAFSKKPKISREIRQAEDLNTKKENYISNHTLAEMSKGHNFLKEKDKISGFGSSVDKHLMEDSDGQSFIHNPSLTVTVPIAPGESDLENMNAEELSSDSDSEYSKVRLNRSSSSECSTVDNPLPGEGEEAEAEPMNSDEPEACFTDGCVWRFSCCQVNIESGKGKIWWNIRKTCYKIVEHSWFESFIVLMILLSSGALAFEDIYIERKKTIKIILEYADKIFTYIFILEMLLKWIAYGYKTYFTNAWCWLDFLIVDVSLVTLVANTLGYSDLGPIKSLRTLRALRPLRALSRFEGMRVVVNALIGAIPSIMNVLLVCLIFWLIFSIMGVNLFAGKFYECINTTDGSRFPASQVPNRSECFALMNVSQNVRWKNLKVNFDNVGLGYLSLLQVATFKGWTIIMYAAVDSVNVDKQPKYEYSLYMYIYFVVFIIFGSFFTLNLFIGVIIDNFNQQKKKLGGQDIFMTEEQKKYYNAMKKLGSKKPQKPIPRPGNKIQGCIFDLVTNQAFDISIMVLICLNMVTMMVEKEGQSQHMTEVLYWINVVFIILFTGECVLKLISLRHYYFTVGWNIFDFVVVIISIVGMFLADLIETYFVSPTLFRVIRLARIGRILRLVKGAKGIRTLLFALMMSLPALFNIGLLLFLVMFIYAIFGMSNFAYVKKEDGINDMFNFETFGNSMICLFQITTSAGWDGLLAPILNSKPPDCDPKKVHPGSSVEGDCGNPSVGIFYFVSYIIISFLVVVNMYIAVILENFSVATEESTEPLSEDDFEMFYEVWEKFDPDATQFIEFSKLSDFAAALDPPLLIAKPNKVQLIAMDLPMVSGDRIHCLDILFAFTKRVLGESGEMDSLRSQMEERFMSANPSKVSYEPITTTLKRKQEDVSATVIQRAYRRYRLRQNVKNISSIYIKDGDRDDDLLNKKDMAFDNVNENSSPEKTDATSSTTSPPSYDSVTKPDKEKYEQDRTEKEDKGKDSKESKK
Sequence of hNav1.7 (Q07699 19-218 partner): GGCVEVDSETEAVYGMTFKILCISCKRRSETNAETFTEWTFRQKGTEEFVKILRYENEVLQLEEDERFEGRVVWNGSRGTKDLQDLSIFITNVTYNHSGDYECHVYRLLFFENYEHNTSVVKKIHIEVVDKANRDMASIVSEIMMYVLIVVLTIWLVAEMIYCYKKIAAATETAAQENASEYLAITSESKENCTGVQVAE
Work on `O=C(NS(=O)(=O)C1CC1)c1cc(C2CC2)c(CN2CCC(Oc3ccc(C(F)(F)F)cc3)CC2)cc1F` [Example 500, 5-cyclopropyl-N-(cyclopropylsulfonyl)-2-fluoro-4-((4-(4-(trifluoromethyl)phenoxy)piperidin-1-yl)methyl)benzamide] yielded an IC50 of 7.8 nM.
Work on `CS(=O)(=O)NC(=O)c1cc(C2CC2)c(CN2CCC(Oc3ccccc3C(F)(F)F)CC2)cc1F` [Example 497, 5-cyclopropyl-2-fluoro-N-(methylsulfonyl)-4-((4-(2-(trifluoromethyl)phenoxy)piperidin-1-yl)methyl)benzamide] yielded an IC50 of 14.3 nM.
`CS(=O)(=O)NC(=O)c1cc(C2CC2)c(CN2CCC(Oc3cccc(C(F)(F)F)c3)CC2)cc1F` [Example 501, 5-cyclopropyl-2-fluoro-N-(methylsulfonyl)-4-((4-(3-(trifluoromethyl)phenoxy)piperidin-1-yl)methyl)benzamide, trifluoroacetic acid salt] was tested, and the IC50 was 13.4 nM.
With `CC(C)(c1cccc(Cl)c1)N1CCC[C@@H](Oc2cc(F)c(C(=O)NS(C)(=O)=O)cc2C2CC2)C1` [Example 529, (R)-4-((1-(2-(3-chlorophenyl)propan-2-yl)piperidin-3-yl)oxy)-5-cyclopropyl-2-fluoro-N-(methylsulfonyl)benzamide, trifluoroacetic acid salt] the IC50 was 2.4 nM.
Compound `CS(=O)(=O)NC(=O)c1cc(C2CC2)c(CN2CCC(Oc3ccc(Cl)c(Cl)c3)CC2)cc1F` [Example 509, 5-cyclopropyl-4-((4-(3,4-dichlorophenoxy)piperidin-1-yl)methyl)-2-fluoro-N-(methylsulfonyl)benzamide, trifluoroacetic acid salt)] has an IC50 of 13.1 nM.

Same assay, conditions: read-out: Ligand Binding Assay; 100 pM [3H]compound, membranes with hNav1.7 and β1 subunit, 18 h, room temperature
`CS(=O)(=O)NC(=O)c1cc(C2CC2)c(OCC2CCN(C(=O)c3cccc(Cl)c3)CC2)cc1F` [Example 195, 4-((1-(3-Chlorobenzoyl)piperidin-4-yl)methoxy)-5-cyclopropyl-2-fluoro-N-(methylsulfonyl)benzamide] was tested, and the IC50 was 350 nM.
For `CS(=O)(=O)NC(=O)c1cc(C2CC2)c(OC[C@H]2CCCN(Cc3cc(Cl)cc(Cl)c3)C2)cc1F` [Example 336, (S)-5-cyclopropyl-4-((1-(3,5-dichlorobenzyl)piperidin-3-yl)methoxy)-2-fluoro-N-(methylsulfonyl)benzamide], the IC50 was 4.9 nM.
In the case of `COC[C@H](c1cc(Cl)cc(Cl)c1)N1CCC(COc2cc(F)c(C(=O)NS(C)(=O)=O)cc2C2CC2)CC1` (single isomer, unassigned) [Example 163], the IC50 is reported as 3.6 nM.
For `CS(=O)(=O)NC(=O)c1cc(C2CC2)c(OCC2CCN(Cc3ccc(Br)cc3Cl)CC2)cc1F` [Example 413, 4-((1-(4-bromo-2-chlorobenzyl)piperidin-4-yl)methoxy-5-cyclopropyl-2-fluoro-N-(methylsulfonyl)benzamide, trifluoroacetic acid salt], the IC50 was 6 nM.
`CCS(=O)(=O)NC(=O)c1cc(C2CC2)c(OCC2CCN([C@H](C)c3ccc(F)cc3Cl)CC2)cc1F` (single isomer, unassigned) [Example 246] was tested, and the IC50 was 7.7 nM.
`CCOc1ccc(CN2CCC[C@@H](Oc3cc(F)c(C(=O)NS(C)(=O)=O)cc3C3CC3)C2)c(OCC)c1` [Example 428, (R)-5-cyclopropyl-4-((1-(2,4-diethoxybenzyl)piperidin-3-yl)oxy)-2-fluoro-N-(methylsulfonyl)benzamide, trifluoroacetic acid salt] showed an IC50 of 23.4 nM.
`CS(=O)(=O)NC(=O)c1cc(C2CC2)c(O[C@@H]2CCCN(Cc3cccc(-c4ccccc4)c3)C2)cc1F` [Example 443, (R)-4-((1-([1,1′-biphenyl]-3-ylmethyl)piperidin-3-yl)oxy)-5-cyclopropyl-2-fluoro-N-(methylsulfonyl)benzamide, trifluoroacetic acid salt] was tested, and the IC50 was 3.4 nM.
Work on `C[C@H](c1cc(Cl)cc(Cl)c1)N1CC(C)(COc2cc(F)c(C(=O)NS(C)(=O)=O)cc2C2CC2)C1` (single isomer, unassigned) [Example 185] yielded an IC50 of 7 nM.
With `CS(=O)(=O)NC(=O)c1cc(C2CC2)c(OCC2CN([C@H](c3ccccc3)c3ccc(F)cc3)C2)cc1F` [Example 145, (R)-5-Cyclopropyl-2-fluoro-4-((1-((4-fluorophenyl)(phenyl)methyl)-azetidin-3-yl)methoxy)-N-(methylsulfonyl)benzamide] the IC50 was 6.22 nM.
For `C[C@H](c1cc(Cl)cc(Cl)c1)N1CCC(F)(COc2cc(F)c(C(=O)NS(C)(=O)=O)cc2C2CC2)CC1` [Example 351, (R)-5-cyclopropyl-4-((1-(1-(3,5-dichlorophenyl)ethyl)-4-fluoropiperidin-4-yl)methoxy)-2-fluoro-N-(methylsulfonyl)benzamide, trifluoroacetic acid], the IC50 was 5.3 nM.
`CS(=O)(=O)NC(=O)c1cc(C2CC2)c(OCC2CCN(S(=O)(=O)c3cccc(C(F)(F)F)c3)CC2)cc1F` [Example 374, 5-cyclopropyl-2-fluoro-N-(methylsulfonyl)-4-((1-((3-(trifluoromethyl)phenyl)sulfonyl)piperidin-4-yl)methoxy)benzamide] gave an IC50 of 23.1 nM.
Compound `CCS(=O)(=O)NC(=O)c1cc(C2CC2)c(OCC2CCN(Cc3cc(Cl)cc(Cl)c3)CC2)cc1F` [Example 184, 5-Cyclopropyl-4-((1-(3,5-dichlorobenzyl)piperidin-4-yl)methoxy)-N-(ethylsulfonyl)-2-fluorobenzamide] has an IC50 of 5.1 nM.
`CS(=O)(=O)NC(=O)c1cc(C2CC2)c(OC[C@@H]2CCCN(Cc3ccc(F)cc3Cl)C2)cc1F` [Example 332, (R)-4-((1-(2-chloro-4-fluorobenzyl)piperidin-3-yl)methoxy)-5-cyclopropyl-2-fluoro-N-(methylsulfonyl)benzamide] was tested, and the IC50 was 35.2 nM.
`O=C(NS(=O)(=O)C1CC1)c1cc(C2CC2)c(OCC2CCN(S(=O)(=O)c3ccc(Br)c(Cl)c3)CC2)cc1F` [Example 391, 4-((1-((4-bromo-3-chlorophenyl)sulfonyl)piperidin-4-yl)methoxy)-5-cyclopropyl-N-(cyclopropylsulfonyl)-2-fluorobenzamide] gave an IC50 of 10.1 nM.
`CS(=O)(=O)NC(=O)c1cc(C2CC2)c(OCC2CCN(Cc3cc(Cl)c(F)c(Cl)c3)CC2)cc1F` [Example 454, 5-cyclopropyl-4-((1-(3,5-dichloro-4-fluorobenzyl)piperidin-4-yl)methoxy)-2-fluoro-N-(methylsulfonyl)benzamide, trifluoroacetic acid salt] gave an IC50 of 5 nM.
With `O=C(NS(=O)(=O)N1CCC1)c1cc(C2CC2)c(OCC2CCN(c3ccccc3)CC2)cc1F` [Example 291, N-(azetidin-1-ylsulfonyl)-5-cyclopropyl-2-fluoro-4-((1-phenylpiperidin-4-yl)methoxy)benzamide] the IC50 was 11 nM.
In the case of `CS(=O)(=O)NC(=O)c1cc(C2CC2)c(O[C@@H]2CCCN(c3ccc(C(F)(F)F)cn3)C2)cc1F` [Example 490, (R)-5-cyclopropyl-2-fluoro-N-(methylsulfonyl)-4-((1-(5-trifluoromethyl)pyridin-2-yl)piperidin-3-yl)oxy)benzamide, trifluoroacetic acid salt], the IC50 is reported as 42.3 nM.
Compound `CS(=O)(=O)NC(=O)c1cc(C2CC2)c(OCC2CCN(C(CF)c3cc(Cl)cc(Cl)c3)CC2)cc1F` (stereo not drawn) [Example 358, 5-cyclopropyl-4-((1-(1-(3,5-dichlorophenyl)-2-fluoroethyl)piperidin-4-yl)methoxy)-2-fluoro-N-(methylsulfonyl)benzamide, trifluoroacetic acid salt] has an IC50 of 14 nM.

Same assay, conditions: read-out: Ligand Binding Assay; 100 pM [3H]compound, membranes with hNav1.7 and β1 subunit, 18 h, room temperature; trifluoroacetic acid salt
With `O=C(NS(=O)(=O)C1CC1)c1cc(C2CC2)c(CN2CCC(Oc3ccc(F)cc3Cl)CC2)cc1F` [Example 507, trifluoroacetic acid salt] the IC50 was 81.7 nM.
